The results in this text go back to patent US20200331904A1, “3-AMINO-[1,2,4]-TRIAZOLE DERIVATIVES AND THEIR USE FOR CONTROLLING UNDESIRED PLANT GROWTH” (Bayer CropScience Aktiengesellschaft, priority 2017, published 2020).

Molecules are shown by their SMILES.

Type in all cases: in vivo
Common to all, as to settings: application rate 320 g/ha, scored visually after about 3 weeks

For one assay, the system named is Matricaria inodora. The experiment in a line: Pre-emergence herbicidal efficacy, MATIN. An excerpt:
(§1) C.1 Pre-Emergence Herbicidal Action and Crop Plant Compatibility
(§2) Seeds of monocotyledonous and dicotyledonous weed plants and crop plants are placed in plastic or organic planting pots and covered with soil. The compounds of the invention, formulated in the form of wettable powders (WP) or as emulsion concentrates (EC), are then applied onto the surface of the covering soil as aqueous suspension or emulsion with addition of 0.5% additive at a water application rate of […] (converted). After the treatment, the pots are placed in a greenhouse and kept under good growth conditions for the trial plants. After about 3 weeks, the effect of the preparations is scored visually in comparison with untreated controls as percentages. For example, 100% activity=the plants have died, 0% activity=like control plants.
(§3) ABUTH: Abutilon theophrasti ALOMY: Alopecurus myosuroides AMARE: Amaranthus retroflexus AVEFA: Avena fatua CYPES: Cyperus esculentus ECHCG: Echinochloa crus-galli LOLMU: Lolium multiflorum MATIN: Matricaria inodora PHBPU: Ipomoea purpurea POLCO: Polygonum convolvulus SETVI: Setaria viridis STEME: Stellaria media VERPE: Veronica persica VTOTR: Viola tricolor

The next assay concerns Stellaria media. The experiment in a line: Pre-emergence herbicidal efficacy, STEME.
Source text: as §1, §2, §3

The next assay deals with Viola tricolor. The experiment in a line: Pre-emergence herbicidal efficacy, VIOTR.
Source text: as §1, §2, §3

On to `c1ccc2c(c1)OCCC2Nc1nc2n(n1)CCCS2` (racemic) [Example I-204], for which, in the assay with Matricaria inodora, the “Herbicidal efficacy against MATIN” value is reported as 100%. Moreover, in the assay on Stellaria media, the “Herbicidal efficacy against STEME” value turned out to be 100%.

For the molecule `CS(=O)(=O)N1CCn2nc(NC3CCCc4ccccc43)nc2C1` (stereo not shown) [Example I-097], the “Herbicidal efficacy against MATIN” value in the assay with Matricaria inodora was 100%. In addition, in the assay with Stellaria media, the “Herbicidal efficacy against STEME” value was 100%. The “Herbicidal efficacy against VIOTR” value in the assay with Viola tricolor stood at 100%.

Turning to `Cc1ccc2c(c1)C(Nc1nc3n(n1)CCN(C(=O)c1ccccc1)C3)C(C)C2` (stereo not shown) [Example I-166], in the assay with Matricaria inodora, the “Herbicidal efficacy against MATIN” value was found to be 90%. In the assay with Stellaria media, the “Herbicidal efficacy against STEME” value came to 100%. Further, the “Herbicidal efficacy against VIOTR” value with Viola tricolor came to 100%.

Regarding `Cc1ccc2c(c1)[C@H](Nc1nc3n(n1)CCN(C(=O)c1ccccc1)C3)CC2` [Example I-174], in the assay with Matricaria inodora, the “Herbicidal efficacy against MATIN” value came out at 90%. The “Herbicidal efficacy against STEME” value in the assay with Stellaria media was determined as 100%. Also, the “Herbicidal efficacy against VIOTR” value in the assay on Viola tricolor is 100%.

On to `c1ccc2c(c1)CCCC2Nc1nc2n(n1)CCCCS2` (stereo not shown) [Example I-216], for which the “Herbicidal efficacy against MATIN” value in the assay on Matricaria inodora turned out to be 100%. The “Herbicidal efficacy against STEME” value in the assay on Stellaria media is recorded as 100%. The “Herbicidal efficacy against VIOTR” value in the assay with Viola tricolor was found to be 100%.

As to `O=S1(=O)CCCn2nc(NC3CCOc4ccccc43)nc21` (stereo not shown) [Example I-242], the “Herbicidal efficacy against MATIN” value with Matricaria inodora is 100%. Further, in the assay on Stellaria media, the “Herbicidal efficacy against STEME” value was found to be 80%.

In the case of `O=S(=O)(Cc1ccccc1)N1CCn2nc(NC3CCCc4ccccc43)nc2C1` (stereo not shown) [Example I-078], in the assay on Matricaria inodora, the “Herbicidal efficacy against MATIN” value is reported as 70%. For the same molecule, the “Herbicidal efficacy against STEME” value with Stellaria media is 90%. Further, the “Herbicidal efficacy against VIOTR” value in the assay with Viola tricolor was 100%.

Turning to `Cc1ccc2c(c1)C(Nc1nc3n(n1)CCN(C(=O)c1cccc(C(F)(F)F)c1)C3)C(C)C2` (stereo not shown) [Example I-168], the “Herbicidal efficacy against MATIN” value with Matricaria inodora was 80%. In the assay with Stellaria media, the “Herbicidal efficacy against STEME” value is 90%. Besides, the “Herbicidal efficacy against VIOTR” value in the assay on Viola tricolor stood at 100%.

Take `O=C(c1ccccc1)N1CCn2nc(N[C@@H]3CCCc4ccccc43)nc2C1` [Example I-164]: the “Herbicidal efficacy against MATIN” value in the assay on Matricaria inodora was determined as 90%. Also, in the assay on Stellaria media, the “Herbicidal efficacy against STEME” value is 100%. For the same molecule, the “Herbicidal efficacy against VIOTR” value with Viola tricolor was 100%.

For the molecule `CC(=O)N1CCn2nc(NC3CCCc4ccccc43)nc2C1` (stereo not shown) [Example I-061], in the assay with Matricaria inodora, the “Herbicidal efficacy against MATIN” value stood at 100%. The “Herbicidal efficacy against STEME” value with Stellaria media came out at 100%. For the same molecule, the “Herbicidal efficacy against VIOTR” value in the assay with Viola tricolor was determined as 100%.

As for `O=C(C1CC1)N1CCn2nc(NC3CCCc4ccccc43)nc2C1` (stereo not shown) [Example I-060], the “Herbicidal efficacy against MATIN” value in the assay on Matricaria inodora was 100%. Further, in the assay on Stellaria media, the “Herbicidal efficacy against STEME” value amounted to 100%. The “Herbicidal efficacy against VIOTR” value in the assay with Viola tricolor stood at 90%.

For `Cc1ccc2c(c1)C(Nc1nc3n(n1)CCN(C(=O)C1CCCCC1)C3)C(C)C2` (stereo not shown) [Example I-172], the “Herbicidal efficacy against MATIN” value in the assay with Matricaria inodora is recorded as 90%. Also, the “Herbicidal efficacy against STEME” value in the assay on Stellaria media turned out to be 100%. In addition, the “Herbicidal efficacy against VIOTR” value in the assay on Viola tricolor is listed as 100%.

In the case of `Cc1ccc2c(c1)[C@H](Nc1nc3n(n1)CCNC3)CCC2` [Example I-157], the “Herbicidal efficacy against MATIN” value with Matricaria inodora was found to be 80%. Further, the “Herbicidal efficacy against STEME” value in the assay with Stellaria media is recorded as 100%. The “Herbicidal efficacy against VIOTR” value in the assay on Viola tricolor came to 100%.

In the case of `Cc1ccc2c(c1)[C@H](Nc1nc3n(n1)CCN(C(=O)c1cccc(Cl)c1)C3)CCC2` [Example I-185], the “Herbicidal efficacy against MATIN” value with Matricaria inodora is listed as 90%. For the same molecule, the “Herbicidal efficacy against STEME” value with Stellaria media is recorded as 100%. Moreover, in the assay on Viola tricolor, the “Herbicidal efficacy against VIOTR” value is given as 100%.

On to `O=C1CCn2nc(NC3CCOc4ccccc43)nc2N1CC1CCCCC1` (stereo not shown) [Example I-255], for which, in the assay with Stellaria media, the “Herbicidal efficacy against STEME” value worked out at 90%. In addition, in the assay on Viola tricolor, the “Herbicidal efficacy against VIOTR” value stood at 100%.

On to `CC(C)S(=O)(=O)N1CCn2nc(NC3CCCc4ccccc43)nc2C1` (stereo not shown) [Example I-094], for which the “Herbicidal efficacy against MATIN” value in the assay with Matricaria inodora worked out at 100%. Further, the “Herbicidal efficacy against STEME” value with Stellaria media was determined as 100%. Moreover, the “Herbicidal efficacy against VIOTR” value in the assay with Viola tricolor is listed as 100%.

As to `c1ccc2c(c1)CCCC2Nc1nc2n(n1)CCCS2` (racemic) [Example I-209], the “Herbicidal efficacy against MATIN” value in the assay on Matricaria inodora is listed as 100%. The “Herbicidal efficacy against STEME” value in the assay on Stellaria media was 100%. Further, the “Herbicidal efficacy against VIOTR” value in the assay with Viola tricolor was determined as 100%.

As to `c1ccc2c(c1)OCCC2Nc1nc2n(n1)CCCCS2` (stereo not shown) [Example I-211], in the assay on Matricaria inodora, the “Herbicidal efficacy against MATIN” value worked out at 100%. In addition, in the assay with Stellaria media, the “Herbicidal efficacy against STEME” value is on record as 100%. Also, in the assay with Viola tricolor, the “Herbicidal efficacy against VIOTR” value is 100%.

As to `O=S1(=O)CCCn2nc(NC3CCCc4ccccc43)nc21` (stereo not shown) [Example I-252], the “Herbicidal efficacy against MATIN” value with Matricaria inodora is on record as 100%. For the same molecule, the “Herbicidal efficacy against STEME” value in the assay with Stellaria media is recorded as 100%.

`Cc1ccc2c(c1)[C@H](Nc1nc3n(n1)CCN(C(=O)c1cccc(C(F)(F)F)c1)C3)CC2` [Example I-176]: the “Herbicidal efficacy against MATIN” value with Matricaria inodora is on record as 80%. Besides, the “Herbicidal efficacy against STEME” value in the assay with Stellaria media turned out to be 80%. Moreover, the “Herbicidal efficacy against VIOTR” value in the assay on Viola tricolor is on record as 90%.

For `Cc1ccc2c(c1)[C@H](Nc1nc3n(n1)CCN(C(=O)c1ccccc1Cl)C3)CC2` [Example I-177], the “Herbicidal efficacy against MATIN” value in the assay with Matricaria inodora turned out to be 90%. Moreover, the “Herbicidal efficacy against STEME” value in the assay on Stellaria media came out at 100%. Besides, the “Herbicidal efficacy against VIOTR” value in the assay on Viola tricolor is listed as 100%.

Consider `O=S(=O)(Cc1ccccc1)N1CCn2nc(NC3CCOc4ccccc43)nc2C1` (stereo not shown) [Example I-076], for which the “Herbicidal efficacy against STEME” value in the assay with Stellaria media is reported as 90%. Further, the “Herbicidal efficacy against VIOTR” value in the assay with Viola tricolor stood at 100%.

As to `CC(=O)N1CCn2nc(N[C@@H]3CCc4ccccc43)nc2C1` [Example I-158], in the assay on Matricaria inodora, the “Herbicidal efficacy against MATIN” value is reported as 90%. Further, the “Herbicidal efficacy against STEME” value in the assay on Stellaria media amounted to 100%. Moreover, the “Herbicidal efficacy against VIOTR” value with Viola tricolor is listed as 100%.

Turning to `O=C1CCn2nc(NC3CCCc4ccccc43)nc2N1CC1CCCCC1` (stereo not shown) [Example I-271], the “Herbicidal efficacy against MATIN” value in the assay on Matricaria inodora worked out at 90%. Besides, the “Herbicidal efficacy against STEME” value in the assay with Stellaria media worked out at 90%. The “Herbicidal efficacy against VIOTR” value in the assay with Viola tricolor is 90%.

Regarding `CC(C)N1C(=O)CCn2nc(NC3CCCc4ccccc43)nc21` (stereo not shown) [Example I-262], the “Herbicidal efficacy against STEME” value in the assay on Stellaria media stood at 100%. Also, in the assay with Viola tricolor, the “Herbicidal efficacy against VIOTR” value is 100%.

With `Cc1ccc2c(c1)C(Nc1nc3n(n1)CCCN3S(=O)(=O)C(C)C)CCC2` (stereo not shown) [Example I-325], in the assay with Stellaria media, the “Herbicidal efficacy against STEME” value was found to be 100%.

`Cc1ccc2c(c1)[C@H](Nc1nc3n(n1)CCN(C(=O)c1ccc(Cl)cc1)C3)CCC2` [Example I-186]: the “Herbicidal efficacy against MATIN” value with Matricaria inodora was 80%. For the same molecule, the “Herbicidal efficacy against STEME” value with Stellaria media was 100%. Further, the “Herbicidal efficacy against VIOTR” value in the assay with Viola tricolor was determined as 100%.

Turning to `O=C1CCn2nc(NC3CCc4ccccc43)nc2N1CC1CCCCC1` (stereo not shown) [Example I-223], the “Herbicidal efficacy against MATIN” value in the assay with Matricaria inodora is on record as 90%. Besides, the “Herbicidal efficacy against STEME” value in the assay with Stellaria media was determined as 100%. Also, the “Herbicidal efficacy against VIOTR” value with Viola tricolor amounted to 90%.

Take `Cc1ccc2c(c1)[C@H](Nc1nc3n(n1)CCN(C(=O)c1ccccc1Cl)C3)CCC2` [Example I-184]: the “Herbicidal efficacy against MATIN” value in the assay on Matricaria inodora stood at 90%. The “Herbicidal efficacy against STEME” value with Stellaria media was found to be 100%. The “Herbicidal efficacy against VIOTR” value with Viola tricolor came out at 100%.

As for `Cc1ccc2c(c1)[C@H](Nc1nc3n(n1)CCN(C(=O)c1cccc(Cl)c1)C3)CC2` [Example I-178], the “Herbicidal efficacy against MATIN” value with Matricaria inodora stood at 70%. In the assay with Stellaria media, the “Herbicidal efficacy against STEME” value is reported as 100%. In addition, in the assay on Viola tricolor, the “Herbicidal efficacy against VIOTR” value came out at 100%.

As for `CS(=O)(=O)N1CCCn2nc(NC3CCCc4ccccc43)nc21` (stereo not shown) [Example I-305], the “Herbicidal efficacy against MATIN” value with Matricaria inodora is reported as 100%. Also, the “Herbicidal efficacy against STEME” value with Stellaria media is 100%. For the same molecule, the “Herbicidal efficacy against VIOTR” value in the assay with Viola tricolor is 100%.
